One data set relates to RBP2. The data set can be described thus: Western blot of retinal RBP2 after I/R. The class given is in vivo, rat. As to conditions: intravitreal 1 day pre-ischemia: 10 μM/5 μl JIB-04, 4 μM/5 μl shikonin, 125 μg/5 μl avastin; Vehicle+I/R = 100%. How it is done:
(§1) DNL was purchased from the Ko Da Company (Taipei, Taiwan) and dissolved in ddH2O. For the electrophysiological, immuohistochemical and molecular biological studies, drug administration was carried out for seven days and involved various groups, namely a post-ischemia administration (daily high dose of DNL at 1 g/kg/day, I/R+DNL1.0), or pre-ischemia administration (daily high dose of DNL, DNL1.0+I/R; low dose of DNL at 0.5 g/kg/day, DNL0.5+I/R). The rats in the vehicle group that were subjected to ischemia were either post-administered (I/R+Vehicle) or pre-administered with a similar volume of vehicle (Vehicle+I/R) as the DNL group.
(§2) As compared with the Sham, Vehicle+I/R or DNL1.0+I/R group, the ischemic eyes of other groups received intravitreal injections using a 30-gauge needle connected to a 25 μl syringe after the pupil was dilated with 1% tropicamide and 2.5% phenylephrine. Specifically, the ischemic eyes received 1 day pre-ischemia intravitreal administrations of various inhibitors/antibodies, namely 10 μM/5 μl JIB-04 (Sigma-Aldrich), 4 μM/5 μl Shikonin (S7576; Sigma-Aldrich), 125 μg/5 μl Avastin (Hoffmann-La Roche), or 200 μg/5 μl Eylea (Regeneron Pharmaceuticals Inc.). One day after retinal I/R and administration of relevant compounds or after a sham procedure, the animals were sacrificed. Retinal samples were collected in order to measure the protein levels of […], RBP2, PKM2, VEGF-A and PLGF by the western blot assay or ELISA.
(§3) Ischemia induction. Each rat was anesthetized with the above anesthetics and placed in a stereotaxic frame. […]
(§4) Retinal/cellular samples were retrieved and sonicated in lysis buffer, namely mammalian protein extraction reagent (MPER; HyCell). Identical quantities of denatured proteins (40 μg/30 μl/well) then underwent sodium dodecyl sulfate polyacrylamide gel electrophoresis (SDS-PAGE; Bio-Rad) as described previously. […] The amount of each protein was then evaluated by scanning densitometry.
For orientation: A western blot detects proteins with antibodies after separation by electrophoresis.

A further data set deals with HIF-1α. In words: Western blot of retinal HIF-1α after I/R. The class given is in vivo, rat. As to conditions: intravitreal 1 day pre-ischemia: 10 μM/5 μl JIB-04, 4 μM/5 μl shikonin, 125 μg/5 μl avastin; Vehicle+I/R = 100%. How it is done: as §1
(§5) As compared with the Sham, Vehicle+I/R or DNL1.0+I/R group, the ischemic eyes of other groups received intravitreal injections using a 30-gauge needle connected to a 25 μl syringe after the pupil was dilated with 1% tropicamide and 2.5% phenylephrine. […]
as §4

The next data set has as its system PKM2. The data set can be described thus: Western blot of retinal PKM2 after I/R. The class given is in vivo, rat. As to conditions: intravitreal 1 day pre-ischemia: 10 μM/5 μl JIB-04, 4 μM/5 μl shikonin, 125 μg/5 μl avastin; Vehicle+I/R = 100%. How it is done: as §1, §2, §3, §4
The test system of the next data set is VEGF. The data set can be described thus: Western blot of retinal VEGF after I/R. The class given is in vivo, rat. Conditions: intravitreal 1 day pre-ischemia: 10 μM/5 μl JIB-04, 4 μM/5 μl shikonin, 125 μg/5 μl avastin; Vehicle+I/R = 100%. How it is done: as §1, §2, §3, §4
Data set [1] concerns placental growth factor (PLGF). The data set can be described thus: ELISA of retinal PLGF after I/R. It is filed as in vivo, rat. Conditions: pre-ischemia intravitreal 200 μg/5 μl Eylea (Eylea+I/R); Vehicle+I/R 39.53±5.25. How it is done: as §1, §5
The level of PLGF was determined using ELISA. […] The total protein in each sample was determined using a bicinchoninic acid protein kit (Thermo Fisher Scientific). The PLGF levels in the supernatant were measured using a PLGF ELISA kit (CSB-E07400r; Cusabio Life Scince) accordingly. […] The maximum absorbance (OD) at 450 nm was detected immediately using a microplate reader (Synergy H1 Hybrid Multi-Mode Reader, Biotek ELx800). […]

Data set [2] in a line: MTT cell viability assay of RGC-5 cells subjected to oxygen glucose deprivation (OGD). The class given is cell-based, mouse. Conditions: mouse, RGC-5 cells subjected to oxygen glucose deprivation (OGD), cytotoxic effect. How it is done: (§6) Moscatilin was purchased from EMMX Biotechnology (EN10271, CA, USA) and dissolved in DMSO (vehicle). […] […] Its therapeutic effects were evaluated by MTT and Western blotting assays.
(§7) The RCG-5 cell lines were not transformed rat RGCs but, rather, mouse retinal neuronal precursors. OGDs were defined as cells that were maintained in glucose-free DMEM (Thermo Fisher Scientific Inc.) at 37° C. under the hypoxic (ischemic-like) conditions, namely 1% O2 (monitored by an analyzer; Penguin Incubator: control range 1-89%; Astec Company, Kukuoka, Japan), 94% N2 and 5% CO2. There were different groups, consisting of cells that received (i) DMSO in DMEM (control cells; DMSO+DMEM), (ii) DMSO followed by OGD (DMSO+OGD), ([…]), (iv) during OGD (During OGD Mos 0.1 μM), or (v) at 1 hour post-OGD (Post-OGD Mos 0.1 μM). At the end of the 1 day OGD period, the cell cultures were returned to fresh DMEM for another 24 h. The MTT (viability) and the Western blotting assays (NDP) were then performed.
(§8) Mitochondria NADPH dependent oxidoreductases were capable of reducing MTT to form formazan. Therefore, an increase in the amount of dark purple formazan corresponded to greater cell viability. MTT (0.5 mg/mL; Sigma-Aldrich) was added and allowed to react for 3 hr at 37° C. to the 96-well plates containing the original 100 μL of cells. The reduced MTT was then solubilized by adding 100 μL DMSO. After agitation of the plates, the OD of the solubilized formazan was measured using an ELISA reader (Synergy H1 Multi-Mode Reader BioTek Instruments) at 562 nm. Cell viability was expressed as OD values relative to the control (100%).

The subject of a further data set is RGC-5 cells. The description is as above. As to conditions: Mus musculus. The class given is cell-based, mouse. How it is done:
as §6, §7, §8

Data set [3] relates to norrie disease protein (NDP). In words: Western blotting of NDP relative to β-actin in RGC-5 cells subjected to OGD. The class given is cell-based, mouse. How it is done:
Moscatilin was purchased from EMMX Biotechnology (EN10271, CA, USA) and dissolved in DMSO (vehicle). […] Moscatilin (0.1 μM) was administered at 1 hour pre-OGD, during OGD, or at 1 hour post-OGD. Its therapeutic effects were evaluated by MTT and Western blotting assays.
The RCG-5 cell lines were not transformed rat RGCs but, rather, mouse retinal neuronal precursors. OGDs were defined as cells that were maintained in glucose-free DMEM (Thermo Fisher Scientific Inc.) at 37° C. under the hypoxic (ischemic-like) conditions, namely 1% O2 (monitored by an analyzer; Penguin Incubator: control range 1-89%; Astec Company, Kukuoka, Japan), 94% N2 and 5% CO2. There were different groups, consisting of cells that received (i) DMSO in DMEM (control cells; DMSO+DMEM), (ii) DMSO followed by OGD (DMSO+OGD), (iii) OGD and administration of moscatilin (0.1 μM in DMEM) at 1 hour pre-OGD (Pre-OGD Mos 0.1 μM), (iv) during OGD (During OGD Mos 0.1 μM), or (v) at 1 hour post-OGD (Post-OGD Mos 0.1 μM). At the end of the 1 day OGD period, the cell cultures were returned to fresh DMEM for another 24 h. The MTT (viability) and the Western blotting assays (NDP) were then performed.
Retinal/cellular samples were retrieved and sonicated in lysis buffer, namely mammalian protein extraction reagent (MPER; HyCell). Identical quantities of denatured proteins (40 μg/30 μl/well) then underwent sodium dodecyl sulfate polyacrylamide gel electrophoresis (SDS-PAGE; Bio-Rad) as described previously. After separation, the protein bands were transferred to a polyvinylidene difluoride (PVDF) membrane and then immersed for 12 hours at 4° C. with the following primary antibodies, mouse monoclonal anti-β-actin antibody (AC-15; 1:2,000; ab6276)/anti-HIF-1α antibody (1:200; H1alpha67-ChIP Grade; Abcam Inc.), rabbit polyclonal anti-VEGF antibody (A-20; 1:200; sc-152)/anti-PKM2 antibody (1:500; ab38237), or rabbit monoclonal anti-RBP2 antibody (ab177486; 1:1000; Abcam Inc.). […] The amount of each protein was then evaluated by scanning densitometry.

For a further data set, the system named is two cell lines. As to conditions: cited from earlier work.

This is an account of results in patent US10493044B1, “Method for treating developmental retinal vascular disorder” (priority 2018, dated 2019).

Where “and” joins values, the source holds several entries; their conditions need not be identical. Identical values can stand only once.

On to `Clc1ccc(N/N=C(\c2ccccc2)c2ccccn2)nc1` [JIB-04], for which the “level of RBP2 (ratio to β-actin)” value with RBP2 worked out at 5.83±1.43%. Moreover, the “level of HIF-1α (ratio to β-actin)” value with HIF-1α came out at 53.98±2.29%. Further, in the data set with PKM2, the “level of PKM2 (ratio to β-actin)” value was 60.36±7.59%. For the same compound, in the data set on VEGF, the “level of VEGF (ratio to β-actin)” value is given as 27.82±1.21%.
Consider “avastin: VEGF antibody (Hoffmann-La Roche)”, for which the “level of RBP2 (ratio to β-actin)” value in the data set on RBP2 was 78.35±3.29%. In addition, in the data set on PKM2, the “level of PKM2 (ratio to β-actin)” value stood at 84.44±4.53%. The “level of VEGF (ratio to β-actin)” value with VEGF came to 5.38±2.51%.
As for “Eylea: VEGF trap/anti-PLGF (Regeneron Pharmaceuticals Inc.)”, in [1], the “level of PLGF” value stood at 6.44 ± 0.60 pg/mL.
On to `CC(C)=CC[C@@H](O)C1=CC(=O)c2c(O)ccc(O)c2C1=O` [shikonin], for which the “level of RBP2 (ratio to β-actin)” value in the data set with RBP2 turned out to be 3.40±0.23%. Also, the “level of HIF-1α (ratio to β-actin)” value with HIF-1α is 42.65±0.76%. For the same compound, the “level of PKM2 (ratio to β-actin)” value in the data set on PKM2 is on record as 44.94±10.91%. For the same compound, the “level of VEGF (ratio to β-actin)” value in the data set on VEGF is 57.55±9.40%.
A word on the viability: it is a per cent measure of how many cells are alive, often set against a control. By IC50 is commonly meant the concentration that gives 50% inhibition. Take `COc1cc(CCc2cc(OC)c(O)c(OC)c2)ccc1O` [moscatilin]: the viability at 10 μM in data set [2] (10 μM moscatilin pre-OGD, n=4) stood at 15.4 ± 3.09%. Further, the viability at 100 μM in [2] (100 μM moscatilin pre-OGD, n=1) worked out at 12.5%. The viability at 0.1 µM turned out to be 56 ± 4.08% in the data set on RGC-5 cells (RGC5, 0.1 μM moscatilin during OGD, P=0.31 vs DMSO+OGD); 52.6 ± 4.16% in the data set with RGC-5 cells (RGC5, 1 h, 0.1 μM moscatilin at 1 hour post-OGD, P=0.41 vs DMSO+OGD); 62.6 ± 4.35% with RGC-5 cells (RGC5, 1 h, 0.1 μM moscatilin at 1 hour pre-OGD, relative to DMSO+DMEM control (100%), DMSO+OGD 53.66±2.67%). Further, the viability at 1 µM with RGC-5 cells (RGC5, 1 μM moscatilin pre-OGD, n=4) came out at 66.4 ± 9.35%. Besides, the “amount of NDP relative to β-actin” value amounted to 108.38±29.33% in data set [3] (0.1 μM moscatilin 1 hour pre-OGD, DMSO+DMEM = 100%, DMSO+OGD 44.54±3.15%); 54.36±3.88% in data set [3] (0.1 μM moscatilin 1 h post-OGD); 48.99±9.89% in [3] (0.1 μM moscatilin during OGD). For the same compound, in the data set on two cell lines (24 h, two cell lines, respectively, previous reports, read-out: IC50 of reduced cell viability), the IC50 was 7 µM and 6.7 µM. For the same compound, the toxicity to cells entry in the data set with two cell lines (concentrations equal to or less than 1 μM, previous researches) is “non-toxic”.
